# Read-outs that look alike come from different tables or passages of the source.
# Tests used:
# Experiment in all cases: Broth dilution MIC
# Type in all cases: cell-based
# [1] = tested on: M. morganii GC 4531; conditions: Morganella morganii, read-out: Antimicrobial Activity (MIC)
# Method: (§1) The in vitro antibacterial activity of Example 1 through Example 20 is determined against a spectrum of Gram-positive and Gram-negative bacteria by a standard broth dilution method. Serial dilution of the compounds are made in Mueller-Hinton broth and inoculated with a bacterial suspension. The lowest concentration of compound that inhibited the growth of a bacterial strain after 18 hours of incubation at 35° C. is reported as the minimal inhibitory concentration (MIC) for that strain.
# [2] = tested on: S. aureus GC 2216; conditions: Staphylococcus aureus, read-out: Antimicrobial Activity (MIC)
# Method: as §1
# [3] = tested on: E. faecalis GC 4555; conditions: Enterococcus faecalis, read-out: Antimicrobial Activity (MIC)
# Method: as §1
# [4] = tested on: S. aureus GC 1131; conditions: Staphylococcus aureus, read-out: Antimicrobial Activity (MIC)
# Method: as §1
# [5] = tested on: P. aeruginosa GC 4532; conditions: Pseudomonas aeruginosa, read-out: Antimicrobial Activity (MIC)
# Method: as §1
# [6] = tested on: K. pneumoniae GC 4534; conditions: Klebsiella pneumoniae, read-out: Antimicrobial Activity (MIC)
# Method: as §1
# [7] = tested on: P. aeruginosa GC 2214; conditions: Pseudomonas aeruginosa, read-out: Antimicrobial Activity (MIC)
# Method: as §1
# [8] = tested on: E. coli GC 4560; conditions: Escherichia coli, GC4560, 18 h, read-out: Antimicrobial Activity (MIC)
# Method: as §1
# [9] = tested on: CNS GC 4538; conditions: read-out: Antimicrobial Activity (MIC)
# Method: as §1
# [10] = tested on: S. aureus GC 4536; conditions: Staphylococcus aureus, read-out: Antimicrobial Activity (MIC)
# Method: as §1
# [11] = tested on: CNS GC 4547; conditions: read-out: Antimicrobial Activity (MIC)
# Method: as §1
# [12] = tested on: E. faecalis GC 2242; conditions: Enterococcus faecalis, read-out: Antimicrobial Activity (MIC)
# Method: as §1
# [13] = tested on: E. faecalis GC 842; conditions: Enterococcus faecalis, read-out: Antimicrobial Activity (MIC)
# Method: as §1
# [14] = tested on: E. coli GC 2203; conditions: Escherichia coli, read-out: Antimicrobial Activity (MIC)
# Method: as §1
# [15] = tested on: E. coli GC 4559; conditions: Escherichia coli, read-out: Antimicrobial Activity (MIC)
# Method: as §1
# [16] = tested on: CNS GC 4537; conditions: read-out: Antimicrobial Activity (MIC)
# Method: as §1
# [17] = tested on: E. coli GC 3226; conditions: Escherichia coli, read-out: Antimicrobial Activity (MIC)
# Method: as §1
# [18] = tested on: P. rettgeri GC 4530; conditions: Providencia rettgeri, read-out: Antimicrobial Activity (MIC)
# Method: as §1
# [19] = tested on: S. marcescens GC 4077; conditions: Serratia marcescens, read-out: Antimicrobial Activity (MIC)
# Method: as §1
# [20] = tested on: E. cloacae GC 3783; conditions: Enterobacter cloacae, read-out: Antimicrobial Activity (MIC)
# Method: as §1
# [21] = GC4531, M. morganii GC 4531, Mueller-Hinton broth, 18 hours at 35° C.
# [22] = GC2216, S. aureus GC 2216, Mueller-Hinton broth, 18 hours at 35° C.
# [23] = GC4555, E. faecalis GC 4555, Mueller-Hinton broth, 18 hours at 35° C.
# [24] = GC1131, S. aureus GC 1131, Mueller-Hinton broth, 18 hours at 35° C.
# [25] = GC4532, P. aeruginosa GC 4532, Mueller-Hinton broth, 18 hours at 35° C.
# [26] = GC4534, K. pneumoniae GC 4534, Mueller-Hinton broth, 18 hours at 35° C.
# [27] = GC2214, P. aeruginosa GC 2214, Mueller-Hinton broth, 18 hours at 35° C.
# [28] = CNS GC 4538, Mueller-Hinton broth, 18 hours at 35° C.
# [29] = GC4536, S. aureus GC 4536, Mueller-Hinton broth, 18 hours at 35° C.
# [30] = CNS GC 4547, Mueller-Hinton broth, 18 hours at 35° C.
# [31] = GC2242, E. faecalis GC 2242, Mueller-Hinton broth, 18 hours at 35° C.
# [32] = GC842, E. faecalis GC 842, Mueller-Hinton broth, 18 hours at 35° C.
# [33] = GC2203, E. coli GC 2203, Mueller-Hinton broth, 18 hours at 35° C.
# [34] = GC4559, E. coli GC 4559, Mueller-Hinton broth, 18 hours at 35° C.
# [35] = CNS GC 4537, Mueller-Hinton broth, 18 hours at 35° C.
# [36] = GC3226, E. coli GC 3226, Mueller-Hinton broth, 18 hours at 35° C.
# [37] = GC4530, P. rettgeri GC 4530, Mueller-Hinton broth, 18 hours at 35° C.
# [38] = GC4077, S. marcescens GC 4077, Mueller-Hinton broth, 18 hours at 35° C.
# [39] = GC3783, E. cloacae GC 3783, Mueller-Hinton broth, 18 hours at 35° C.
Structure (SMILES),MIC [8] [µg/mL],"MIC [1, 21] [µg/mL]","MIC [2, 22] [µg/mL]","MIC [3, 23] [µg/mL]","MIC [4, 24] [µg/mL]","MIC [5, 25] [µg/mL]","MIC [6, 26] [µg/mL]","MIC [7, 27] [µg/mL]","MIC [9, 28] [µg/mL]","MIC [10, 29] [µg/mL]","MIC [11, 30] [µg/mL]","MIC [12, 31] [µg/mL]","MIC [13, 32] [µg/mL]","MIC [14, 33] [µg/mL]","MIC [15, 34] [µg/mL]","MIC [16, 35] [µg/mL]","MIC [17, 36] [µg/mL]","MIC [18, 37] [µg/mL]","MIC [19, 38] [µg/mL]","MIC [20, 39] [µg/mL]",also measured
"CO[C@H]1C(O[C@H](C2C(=O)N(c3ccc(F)cc3)C(=O)N2CCCNC(=O)C(NC(=O)C(NC(=O)NC(C(=O)O)C(C)C)C2CCNC(=N)N2)C(O)C(C)C)[C@H]2O[C@@H](n3ccc(=O)[nH]c3=O)[C@H](O)[C@@H]2O)O[C@H](CN)[C@@H]1O (stereo partly drawn) [Example 1, 14-[5-((R)-{[(3R,4S,5R)-5-(Aminomethyl)-4-hydroxy-3-methoxytetrahydro-2-furanyl]oxy}{(2S,3S,4R,5R)-5-[2,4-dioxo-3,4-dihydro-1 (2H)-pyrimidinyl]-3,4-dihydroxytetrahydro-2-furanyl}methyl)-3-(4-fluorophenyl)-2,4-dioxo-1-imidazolidinyl]-9-(1-hydroxy-2-methylpropyl)-6-(2-iminohexahydro-4-pyrimidinyl)-2-isopropyl-4,7,10-trioxo-3,5,8,11-tetraazatetradecan-1-oic acid]",64,,,,,,,,,,,,,,,,,,,,"MIC ([1]; GC4531, 18 h): > 32 µg/mL; MIC ([2]; GC2216, 18 h): > 32 µg/mL; MIC ([3]; GC4555, 18 h): > 32 µg/mL; MIC ([4]; GC1131, 18 h): > 32 µg/mL; MIC ([5]; GC4532, 18 h): > 32 µg/mL; MIC ([6]; GC4534, 18 h): > 32 µg/mL; MIC ([7]; GC2214, 18 h): > 32 µg/mL; MIC ([9]; 18 h): 32 µg/mL; MIC ([10]; GC4536, 18 h): > 32 µg/mL; MIC ([11]; 18 h): > 32 µg/mL; MIC ([12]; GC2242, 18 h): > 32 µg/mL; MIC ([13]; GC842, 18 h): > 32 µg/mL; MIC ([14]; GC2203, 18 h): > 32 µg/mL; MIC ([15]; GC4559, 18 h): > 32 µg/mL; MIC ([16]; 18 h): > 32 µg/mL; MIC ([17]; GC3226, 18 h): > 32 µg/mL; MIC ([18]; GC4530, 18 h): > 32 µg/mL; MIC ([19]; GC4077, 18 h): > 32 µg/mL; MIC ([20]; GC3783, 18 h): > 32 µg/mL"
"CCCCCN1C(=O)C([C@@H](OC2O[C@H](CN)[C@H](O)[C@H]2OC)[C@H]2O[C@@H](n3ccc(=O)[nH]c3=O)[C@H](O)[C@@H]2O)N(CCCNC(=O)C(NC(=O)C(NC(=O)NC(C(=O)O)C(C)C)C2CCNC(=N)N2)C(O)C(C)C)C1=O (stereo partly drawn) [Example 2, 14-[5-((R)-{[(3R,4S,5R)-5-(Aminomethyl)-4-hydroxy-3-methoxytetrahydro-2furanyl]oxy}{(2S,3S,4R,5R)-5-[2,4-dioxo-3,4-dihydro-1 (2H)-pyrimidinyl]-3,4-dihydroxytetrahydro-2-furanyl}methyl)-2,4-dioxo-3-pentyl-1-imidazolidinyl]-9-(1-hydroxy-2-methylpropyl)-6-(2-iminohexahydro-4-pyrimidinyl)-2-isopropyl-4,7,10-trioxo-3,5,8,11-tetraazatetradecan-1-oic acid]",32,> 32,> 32,> 32,> 32,> 32,> 32,> 32,> 32,> 32,> 32,> 32,> 32,> 32,> 32,> 32,> 32,> 32,> 32,> 32,
"CCCCCCN1C(=O)C([C@@H](OC2O[C@H](CN)[C@H](O)[C@H]2OC)[C@H]2O[C@@H](n3ccc(=O)[nH]c3=O)[C@H](O)[C@@H]2O)N(CCCNC(=O)C(NC(=O)C(NC(=O)NC(C(=O)O)C(C)C)C2CCNC(=N)N2)C(O)C(C)C)C1=O (stereo partly drawn) [Example 3, 14-[5-((R)-{[(3R,4S,5R)-5-(Aminomethyl)-4-hydroxy-3-methoxytetrahydro-2-furanyl]oxy}{(2S,3S,4R,5R)-5-[2,4-dioxo-3,4-dihydro-1 (2H)-pyrimidinyl]-3,4-dihydroxytetrahydro-2-furanyl}methyl)-3-hexyl-2,4-dioxo-1-imidazolidinyl]-9-(1-hydroxy-2-methylpropyl)-6-(2-iminohexahydro-4-pyrimidinyl)-2-isopropyl-4,7,10-trioxo-3,5,8,11-tetraazatetradecan-1-oic acid]",32,> 32,> 32,> 32,> 32,> 32,> 32,> 32,> 32,> 32,> 32,> 32,> 32,> 32,> 32,> 32,> 32,> 32,> 32,> 32,
"COc1ccc(N2C(=O)C([C@@H](OC3O[C@H](CN)[C@H](O)[C@H]3OC)[C@H]3O[C@@H](n4ccc(=O)[nH]c4=O)[C@H](O)[C@@H]3O)N(CCCNC(=O)C(NC(=O)C(NC(=O)NC(C(=O)O)C(C)C)C3CCNC(=N)N3)C(O)C(C)C)C2=O)cc1 (stereo partly drawn) [Example 4, 14-[5-((R)-{[(3R,4S,5R)-5-(Aminomethyl)-4-hydroxy-3-methoxytetrahydro-2-furanyl]oxy}{(2S,3S,4R,5R)-5-[2,4-dioxo-3,4-dihydro-1 (2H)-pyrimidinyl]-3,4-dihydroxytetrahydro-2-furanyl}methyl)-3-(4-methoxyphenyl)-2,4-dioxo-1-imidazolidinyl]-9-(1-hydroxy-2-methylpropyl)-6-(2-iminohexahydro-4-pyrimidinyl)-2-isopropyl-4,7,10-trioxo-3,5,8,11-tetraazatetradecan-1-oic acid]",> 32,> 32,> 32,> 32,> 32,> 32,> 32,> 32,> 32,> 32,> 32,> 32,> 32,> 32,> 32,> 32,> 32,> 32,> 32,> 32,
